Results from article PMC10447463, “Data-mining unveils structure–property–activity correlation of viral infectivity enhancing self-assembling peptides” (Nature Communications, 2023).
Read-outs that look alike come from different tables or passages of the source.

Experiments:
[1] = previously reported peptides only; ref sieste 2021 or Schilling2019; cited from earlier work
Description: Supplement 41467_2023_40663_MOESM7_ESM.zip/FigS17.csv, table | column: Conversion Rate / % ( from sieste 2021 or Schilling2019)

[2] = β-sheet content by ATR-FT-IR; format: physicochemical
Method in brief: (§1)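 1 mg/mL PNF solutions lyophilized and powders measured by diamond ATR FT-IR (2 cm^-1 resolution, 64 scans); β-sheet content calculated per a prior method. For CR, PNF solution centrifuged through 3 kDa MWCO filter (16200 x g, 4 °C, 45 min); filtrate and unfiltered sample lyophilized, dissolved in DMSO, reacted with fluorescamine.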

[3] = Conversion rate (CR) assay with fluorescamine; format: physicochemical
Method in brief: as §1

[4] = Aggregate analysis by widefield fluorescence microscopy; format: physicochemical
Method in brief: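 Brightfield images were acquired alongside ThT fluorescence so that aggregates lacking ThT signal were also captured. Preformed peptide fibrils had been incubated 1 d at RT in PBS before dilution to 0.1 mg/mL in 50 µM ThT, and particles above 10 µm^2 were then counted and sized automatically.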

[5] = Fig S8 panels A, C, 3 fields of 1330 µm x 1330 µm
[6] = Fig S8 panels B, D, average aggregate area, 3 fields of 1330 µm x 1330 µm
[7] = Fig S8 panels B, D, median aggregate area, 3 fields of 1330 µm x 1330 µm
[8] = Fig S8 panels B, D, 3 fields of 1330 µm x 1330 µm
[9] = Fig S8 panels B, D, widefield fluorescence microscopy, 3 fields of 1330 µm x 1330 µm

Substance | Conversion Rate / % ( from sieste 2021 or Schilling2019) [1] [%] | FTIR ß-sheet content/ % ([2]; ATR-FT-IR) [%] | Conversion Rate / % ([3]; fluorescamine assay) [%] | Avg Area in 3 *(1330 µm *1330 µm) ([4]; Fig S8 panels A, C) | Log 10 Number of aggregates in 3 * (1330 µm *1330 µm) ([4]; Fig S8 panels A, C) | Median Area in 3 * (1330 µm *1330 µm) ([4]; Fig S8 panels A, C) | log Avg Area in 3 * ( (1330 µm *1330 µm)) ([4]; Fig S8 panels A, C) | log Median Area in 3 * ( (1330 µm *1330 µm)) ([4]; Fig S8 panels A, C) | log Total Area of all particles in 3 * (1330 µm *1330 µm) ([4]; Fig S8 panels A, C) | Number of aggregates in 3 * (1330 µm *1330 µm) [4, 5] | Avg Area in 3 *(1330 µm *1330 µm) [4, 6] | Median Area in 3 * (1330 µm *1330 µm) [4, 7] | Total Area of all particles in 3 * (1330 µm *1330 µm) [4, 8] | Number of aggregates in 3 * (1330 µm *1330 µm) [4, 9] | FTIR ß-sheet content/ % [2] [%] | Conversion Rate / % [3] [%]
KIKIQIII [TG7] | 87 | – | – | – | – | – | – | – | – | – | – | – | – | – | – | –
RLRLTLC [CN13] | – | 20.69 | 87.44 | – | – | – | – | – | – | – | – | – | – | – | – | –
HHHHKIKIQINMYYYY [TM16] | – | 46.73 | 98.42 | 97.09 | 2.3686 | 27.74 | 1.987 | 1.443 | 4.356 | 233.7 | 97.09 | 27.74 | 22686.609 | 233.7 | – | –
HIHIQIC [CN12] | – | 48.25 | 82.72 | 747.6 | 1.523 | 85.979 | 2.874 | 1.934 | 4.397 | 33.33 | 747.6 | 85.979 | 24920.46633 | 33.33 | – | –
EIEIQINM [TM95 / (TM75)] | – | – | – | – | – | – | – | – | – | – | – | – | – | – | 53.87 | 79.85
KFKFQFFF [TG12] | 99 | 49.11 | 97.92 | – | – | – | – | – | – | – | – | – | – | – | 49.11 | 97.92
RGEKIKIQINM [CN18] | – | 43.05 | 80.28 | – | – | – | – | – | – | – | – | – | – | – | – | –
RGECKFKFQF [CN16] | – | 46.18 | 98.71 | – | – | – | – | – | – | – | – | – | – | – | – | –
EIEIQINMWQ [VH8] | – | – | – | – | – | – | – | – | – | – | – | – | – | – | 53.91 | 89.92
KIKQIIN [JGA3] | – | – | – | 51.51 | 1.067 | 15.7 | 1.712 | 1.196 | 2.779 | 11.67 | 51.51 | 15.7 | 600.94 | 11.67 | – | –
RGDSGGGGGGKIKIQIC [TM114 / RC17] | – | – | – | 372.8 | 1.857 | 53.0945 | 2.572 | 1.725 | 4.429 | 72 | 372.8 | 53.0945 | 26843.97667 | 72 | – | –
KIKIQIN [JGB3] | – | – | – | 197.4 | 0.6021 | 197.8005 | 2.295 | 2.296 | 2.897 | 4 | 197.4 | 197.8005 | 789.7 | 4 | – | –
HLHLPLL [CN14] | – | 49.19 | 37.51 | – | – | – | – | – | – | – | – | – | – | – | – | –
RGDKIKIQINM [MG8a / CN17] | 48 | 45.52 | 73.83 | – | – | – | – | – | – | – | – | – | – | – | 45.52 | 73.83
